Results on one compound are retold here after PMC7823449 (Antioxidants, 2020).

The nature of series [1]: Chemical stability (chemical hydrolysis) at different pH and temperature, HPLC of residual RSVTR. The class given is physicochemical. The note with it: dark. The method, then: The chemical hydrolysis of RSVTR was studied at pH 2.0 (0.2 N HCI), 6.8 and 7.2 (phosphate buffer solutions). All solutions containing the same amount of RSVTR (1.18 µM) were kept in the dark at a constant temperature of 37 °C, 22 °C, and 5 °C. At appropriate time intervals, chosen to obtain enough data to pinpoint the stability profile (0, 2, 4, 8, 24, 48, 72, 96, 168, 696 h at pH 7.2; 0, 2, 4, 8, 24, 48, 72, 96, 192, 528, 768 h at pH 6.8; 0, 2, 4, 8, 24, 48, 72, 96, 528 h at pH 2.0), samples were withdrawn and analyzed immediately by HPLC for the residual RSVTR.
Pseudo-first-order rate constants were determined from the slope of the linear portion of the graph obtained, plotting the logarithm of the residual amount of RSVTR against time. RSVTR half-life (t1/2) was calculated according to Equation (1): t1/2 = […] (1) where k is the pseudo-first-order rate constant.
RSVTR was analyzed using an isocratic binary mobile phase consisting of 5% of acetonitrile and 95% of triethylamine 0.3% (v/v) in water (pH adjusted to 3.0 with trifluoroacetic acid). The flow rate was set at 1.0 mL/min and the column was maintained at 24 °C throughout the analysis. Chromatograms were acquired at 290 nm after analyzing RSVTR UV spectra in the range 200–400 nm and the retention time of RSVTR was approximately 5.40 min. The analytical method was validated according to ICH guidelines.

A short description of series [2]: Oxygen Radical Absorbance Capacity (ORAC) assay. The series is classed as biochemical. The settings on record: samples 100 μg/mL properly diluted, AAPH 100 mM, fluorescein 10 nM, 37 °C, pH 7.0; values only in Figure 7.
Protocol: The ORAC assay determined the fluorescence decrease of fluorescein (10 nM) after its oxidation in the presence of AAPH and the investigated samples (100 μg/mL) properly diluted, as previously reported [46, 47]. The assays were carried out at 37 °C, pH 7.0 recording fluorescence through a Wallac Victor 1420 Multilabel Counters fluorimeter (PerkinElmer, Waltham, MA, USA) (excitation λ = 540 nm, emission λ = 570 nm). Trolox (12.5 μM) and phosphate buffer were used as control standard and blank, respectively. The area under the quenching curve of fluorescein was used to calculate ORAC value of the investigated compounds using Origin®7 (OriginLab Corporation, Northampton, USA). ORAC Units, expressed as trolox micromole per microgram of sample (μmol/μg), were obtained according to Equation (2): ORAC value (μmol/μg) = K(S sample − S blank)/(S Trolox − S blank) (2) where K is the sample dilution factor, S the area under the fluorescence decay curve of sample, trolox or blank. Each experiment was performed in triplicate and data were expressed as mean ± SD
The target in series [3] is T1, bovine serum albumin (BSA) (Bos taurus, UniProt P02769).
T1 construct: purchased Sigma-Aldrich S.r.l; (Milan, Italy)
Put plainly: Anti-glycation activity, AGEs formation through Maillard reaction (BSA + D-fructose). The series is classed as biochemical. The note with it: samples 400 μg/mL, BSA 10 mg/mL + D-fructose 0.5 M, pH 7.4, 37 °C, 7 days; values only in Figure 8. The method, then: Protein model bovine serum albumin (BSA) (10 mg/mL) incubated with D-fructose (0.5 M) in phosphate buffer 50 mM, pH 7.4 and NaN3 0.02% was used as positive control. BSA alone was the negative control while aminoguanidine (AMG) (400 μg/mL) was used as a reference. Final glycated BSA solutions (300 μL), alone and with samples (400 μg/mL), were incubated at 37 °C in 96-well microtiter closed with their silicon lids for 7 days. The inhibition of fluorescence was determined using a Wallac Victor 1420 Multilabel Counters fluorimeter (PerkinElmer, Waltham, MA, USA) (λexc 370 nm; λem 440 nm). Relative fluorescence units (RFU) were recorded and the percentage of AGEs formation inhibition was calculated as follows (Equation (3)): % of inhibition = {1 − (RFU sample/RFU Positive control)} × 100 (3)
Each experiment was performed in triplicate and data were expressed as mean ± SD Statistical analysis of the results was performed using Student’s t-test (p < 0.05).

Each structure is given as a SMILES string.

T1 sequence (P02769 25-607): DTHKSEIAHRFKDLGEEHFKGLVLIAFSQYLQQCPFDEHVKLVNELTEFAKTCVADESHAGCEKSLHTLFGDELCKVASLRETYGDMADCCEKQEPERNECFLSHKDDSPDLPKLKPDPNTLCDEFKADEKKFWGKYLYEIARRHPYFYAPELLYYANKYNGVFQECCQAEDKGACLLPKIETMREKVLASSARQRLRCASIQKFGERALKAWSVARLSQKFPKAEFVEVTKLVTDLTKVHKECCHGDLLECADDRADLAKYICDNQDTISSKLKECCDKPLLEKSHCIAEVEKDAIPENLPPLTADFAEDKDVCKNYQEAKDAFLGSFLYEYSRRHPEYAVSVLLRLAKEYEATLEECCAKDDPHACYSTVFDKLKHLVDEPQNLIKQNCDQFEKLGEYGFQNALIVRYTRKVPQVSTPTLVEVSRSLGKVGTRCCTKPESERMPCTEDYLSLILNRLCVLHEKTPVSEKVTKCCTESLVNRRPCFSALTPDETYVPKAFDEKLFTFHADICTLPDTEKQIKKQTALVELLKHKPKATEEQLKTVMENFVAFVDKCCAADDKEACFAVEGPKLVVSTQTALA

Regarding `Cc1c(C)c2c(c(C)c1O)CCC(C)(C(=O)Oc1ccc(/C=C/c3cc(OC(=O)C4(C)CCc5c(C)c(O)c(C)c(C)c5O4)cc(OC(=O)C4(C)CCc5c(C)c(O)c(C)c(C)c5O4)c3)cc1)O2` (stereo not drawn) [RSVTR], the melting point lay in the range of 113 to 116 °C. In addition, the half-life at 1.18 µM in series [1] (0.2 N HCl solution, pH 2, pH 2.0 (0.2 N HCl), 5 °C) is 19.2 days. This compound also gave a half-life at 1.18 µM in series [1] (0.2 N HCl solution, pH 2, pH 2.0 (0.2 N HCl), 22 °C) of 8.25 days. Moreover, the half-life at 1.18 µM in series [1] (0.2 N HCl solution, pH 2, pH 2.0 (0.2 N HCl), 37 °C) was 5.54 days. Also, the half-life at 1.18 µM in series [1] (phosphate buffer, pH 6.8, pH 6.8 phosphate buffer, 5 °C) was 48.1 days. Further, in series [1] (phosphate buffer, pH 6.8, pH 6.8 phosphate buffer, 22 °C), the half-life at 1.18 µM was 36.1 days. The half-life at 1.18 µM in series [1] (phosphate buffer, pH 6.8, pH 6.8 phosphate buffer, 37 °C) was 28.9 days. The same compound gave a half-life at 1.18 µM in series [1] (phosphate buffer, pH 7.2, pH 7.2 phosphate buffer, 5 °C) of 72.2 days. In addition, the half-life at 1.18 µM in series [1] (phosphate buffer, pH 7.2, pH 7.2 phosphate buffer, 22 °C) is 28.9 days. Besides, the half-life at 1.18 µM in series [1] (phosphate buffer, pH 7.2, pH 7.2 phosphate buffer, 37 °C) was 12.5 days. For the same compound, the “Antioxidant activity (ORAC), result in words” value in series [2] is given as “lower antioxidant capacity”. Besides, in series [3], the “Anti-glycation activity (inhibition of AGEs formation), result in words” value is “better anti-glycation agent than RSV”.
